{"source": "patent US9138003B2", "about": "“Phosphonates and derivatives thereof as enhancers of the activity of insecticides” (Syngenta Crop Protection Inc., priority 2002, dated 2015)", "format_in_all_cases": "in vivo", "key": {"[1]": {"tested_on": "L1/L2 Liriomyza huidobriensis, leaf miner", "test": "curative control of L1/L2 leaf miner within bean leaves", "conditions": "for % control, Alone: no BEEP; for % control, +BEEP: with 0.5% BEEP", "source_text": "The activity of a range of insecticides combined with 0.5% bis(2-ethylhexyl)-2-ethylhexyl phosphonate (BEEP) was compared with a corresponding formulation containing no bis(2-ethylhexyl)-2-ethylhexyl phosphonate in a test of curative control of L1/L2 Liriomyza huidobriensis, leaf miner. The results are set out in Table 1 and show % control of this leaf miner within bean leaves."}, "[2]": {"tested_on": "Plutella xylostella", "test": "feeding/contact test against Plutella xylostella", "conditions": "for % control, Alone: no BEEP; for % control, +BEEP: with 0.5% BEEP", "source_text": "The activity of lambda-cyhalothrin, profenofos and indoxacarb combined with 0.5% bis(2-ethylhexyl)-2-ethylhexyl phosphonate (BEEP) was compared with a corresponding formulation containing no bis(2-ethylhexyl)-2-ethylhexyl phosphonate in a feeding/contact test against Plutella xylostella. The results are set out in Table 2 and show % control."}, "[3]": {"tested_on": "R2 Myzus persicae", "test": "translaminar test (3 day assessment time) against R2 Myzus persicae", "conditions": "0.5% BEEP, no insecticide", "source_text": "The activity of lambda-cyhalothrin, as Karate 10CS with 0.5% bis(2-ethylhexyl)-2-ethylhexyl phosphonate (BEEP) was compared with a Karate 10CS containing no bis(2-ethylhexyl)-2-ethylhexyl phosphonate in a translaminar test (3 day assessment time) against R2 Myzus persicae. The results are set out in Table 3 and show % control."}, "[4]": {"tested_on": "Aphis gossypii", "test": "translaminar test (3 day assessment time) against Aphis gossypii", "conditions": "0.5% BEOP, no insecticide", "source_text": "The activity of thiamethoxam as Actara 25WG with bis(2-ethylhexyl) octyl phosphonate (BEOP) at 0.5% was compared with Actara containing no bis(2-ethylhexyl) octyl phosphonate in a translaminar test (3 day assessment time) against Aphis gossypii. The results are set out in Table 4 and show % control."}}, "note": "Values joined by “and” are separate entries in the source; they are usually repeats but may differ in a detail not shown here. Equal entries are not always repeated."}
{"molecule": "CCCCC(CC)COP(=O)(CC(CC)CCCC)OCC(CC)CCCC", "note": "(stereo not shown) [BEEP, bis(2-ethylhexyl)-2-ethylhexyl phosphonate]", "values": [{"measurement": "% control, Control +BEEP", "setting": "[1]; 0.5% BEEP, no insecticide", "result": 0, "unit": "%"}, {"measurement": "% control, Control +BEEP", "setting": "[2]; 0.5% BEEP, no insecticide", "result": "11% and 20%"}, {"measurement": "% control, Control +BEEP", "setting": "[3]", "result": 4, "unit": "%"}]}
{"molecule": "COC(=O)N(C(=O)N1CO[C@@]2(C(=O)OC)Cc3cc(Cl)ccc3C2=N1)c1ccc(OC(F)(F)F)cc1", "note": "[Indoxacarb]", "values": [{"measurement": "% control, Alone", "setting": "[2]; 0.16 ppm", "result": 32, "unit": "%"}, {"measurement": "% control, +BEEP", "setting": "[2]; 0.16 ppm", "result": 57, "unit": "%"}, {"measurement": "% control, Alone", "setting": "[2]; 0.31 ppm", "result": 26, "unit": "%"}, {"measurement": "% control, +BEEP", "setting": "[2]; 0.31 ppm", "result": 80, "unit": "%"}, {"measurement": "% control, Alone", "setting": "[2]; 0.63 ppm", "result": 32, "unit": "%"}, {"measurement": "% control, +BEEP", "setting": "[2]; 0.63 ppm", "result": 98, "unit": "%"}, {"measurement": "% control, Alone", "setting": "[2]; 1.25 ppm", "result": 80, "unit": "%"}, {"measurement": "% control, +BEEP", "setting": "[2]; 1.25 ppm", "result": 100, "unit": "%"}]}
{"molecule": "CC1(C)[C@H](C(=O)O[C@H](C#N)c2cccc(Oc3ccccc3)c2)[C@@H]1/C=C(\\Cl)C(F)(F)F", "note": "(racemic) [Lambda-cyhalothrin]", "values": [{"measurement": "% control, Alone", "setting": "[2]; 0.31 ppm", "result": 54, "unit": "%"}, {"measurement": "% control, +BEEP", "setting": "[2]; 0.31 ppm", "result": 100, "unit": "%"}, {"measurement": "% control, Alone", "setting": "[2]; 0.63 ppm", "result": 66, "unit": "%"}, {"measurement": "% control, +BEEP", "setting": "[2]; 0.63 ppm", "result": 100, "unit": "%"}, {"measurement": "% control, Alone", "setting": "[2]; 1.25 ppm", "result": 83, "unit": "%"}, {"measurement": "% control, +BEEP", "setting": "[2]; 1.25 ppm", "result": 100, "unit": "%"}, {"measurement": "% control, Alone", "setting": "[2]; 2.5 ppm", "result": 95, "unit": "%"}, {"measurement": "% control, +BEEP", "setting": "[2]; 2.5 ppm", "result": 100, "unit": "%"}]}
{"molecule": "CN1COCN(Cc2cnc(Cl)s2)/C1=N\\[N+](=O)[O-]", "note": "[thiamethoxam]", "values": [{"measurement": "% control, Alone", "setting": "[1]; 400 ppm", "result": 0, "unit": "%"}, {"measurement": "% control, +BEEP", "setting": "[1]; 400 ppm", "result": 20, "unit": "%"}, {"measurement": "% control, Alone", "setting": "[1]; 600 ppm", "result": 0, "unit": "%"}, {"measurement": "% control, +BEEP", "setting": "[1]; 600 ppm", "result": 43, "unit": "%"}, {"measurement": "% control, Alone", "setting": "[1]; 800 ppm", "result": 0, "unit": "%"}, {"measurement": "% control, +BEEP", "setting": "[1]; 800 ppm", "result": 63, "unit": "%"}, {"measurement": "% control, Alone", "setting": "[1]; 1000 ppm", "result": 12, "unit": "%"}, {"measurement": "% control, +BEEP", "setting": "[1]; 1000 ppm", "result": 68, "unit": "%"}]}
{"molecule": "Nc1nc(N)nc(NC2CC2)n1", "note": "[cypromazine]", "values": [{"measurement": "% control, Alone", "setting": "[1]; 25 ppm", "result": 27, "unit": "%"}, {"measurement": "% control, +BEEP", "setting": "[1]; 25 ppm", "result": 28, "unit": "%"}, {"measurement": "% control, Alone", "setting": "[1]; 50 ppm", "result": 57, "unit": "%"}, {"measurement": "% control, +BEEP", "setting": "[1]; 50 ppm", "result": 83, "unit": "%"}, {"measurement": "% control, Alone", "setting": "[1]; 100 ppm", "result": 81, "unit": "%"}, {"measurement": "% control, +BEEP", "setting": "[1]; 100 ppm", "result": 100, "unit": "%"}, {"measurement": "% control, Alone", "setting": "[1]; 200 ppm", "result": 100, "unit": "%"}, {"measurement": "% control, +BEEP", "setting": "[1]; 200 ppm", "result": 100, "unit": "%"}]}
{"molecule": "spinosad", "values": [{"measurement": "% control, Alone", "setting": "[1]; 400 ppm", "result": 42, "unit": "%"}, {"measurement": "% control, +BEEP", "setting": "[1]; 400 ppm", "result": 100, "unit": "%"}, {"measurement": "% control, Alone", "setting": "[1]; 600 ppm", "result": 73, "unit": "%"}, {"measurement": "% control, +BEEP", "setting": "[1]; 600 ppm", "result": 100, "unit": "%"}, {"measurement": "% control, Alone", "setting": "[1]; 800 ppm", "result": 82, "unit": "%"}, {"measurement": "% control, +BEEP", "setting": "[1]; 800 ppm", "result": 100, "unit": "%"}, {"measurement": "% control, Alone", "setting": "[1]; 1000 ppm", "result": 81, "unit": "%"}, {"measurement": "% control, +BEEP", "setting": "[1]; 1000 ppm", "result": 100, "unit": "%"}]}
{"molecule": "Abamectin", "values": [{"measurement": "% control, Alone", "setting": "[1]; 3.13 ppm", "result": 27, "unit": "%"}, {"measurement": "% control, +BEEP", "setting": "[1]; 3.13 ppm", "result": 99, "unit": "%"}, {"measurement": "% control, Alone", "setting": "[1]; 6.25 ppm", "result": 48, "unit": "%"}, {"measurement": "% control, +BEEP", "setting": "[1]; 6.25 ppm", "result": 100, "unit": "%"}, {"measurement": "% control, Alone", "setting": "[1]; 12.5 ppm", "result": 74, "unit": "%"}, {"measurement": "% control, +BEEP", "setting": "[1]; 12.5 ppm", "result": 100, "unit": "%"}, {"measurement": "% control, Alone", "setting": "[1]; 25 ppm", "result": 96, "unit": "%"}, {"measurement": "% control, +BEEP", "setting": "[1]; 25 ppm", "result": 100, "unit": "%"}]}
{"molecule": "CCCCCCCCP(=O)(OCC(CC)CCCC)OCC(CC)CCCC", "note": "(stereo not shown) [BEOP, bis(2-ethylhexyl) octyl phosphonate]", "values": [{"measurement": "% control, Control +BEOP", "setting": "[4]", "result": 3, "unit": "%"}]}
{"molecule": "CCOCn1c(-c2ccc(Cl)cc2)c(C#N)c(Br)c1C(F)(F)F", "note": "[chlorfenpyr]", "values": [{"measurement": "% control, Alone", "setting": "[1]; 400 ppm", "result": 0, "unit": "%"}, {"measurement": "% control, +BEEP", "setting": "[1]; 400 ppm", "result": 100, "unit": "%"}, {"measurement": "% control, Alone", "setting": "[1]; 600 ppm", "result": 15, "unit": "%"}, {"measurement": "% control, +BEEP", "setting": "[1]; 600 ppm", "result": 100, "unit": "%"}, {"measurement": "% control, Alone", "setting": "[1]; 800 ppm", "result": 0, "unit": "%"}, {"measurement": "% control, +BEEP", "setting": "[1]; 800 ppm", "result": 100, "unit": "%"}, {"measurement": "% control, Alone", "setting": "[1]; 1000 ppm", "result": 28, "unit": "%"}, {"measurement": "% control, +BEEP", "setting": "[1]; 1000 ppm", "result": 100, "unit": "%"}]}
{"molecule": "N#Cc1nn(-c2c(Cl)cc(C(F)(F)F)cc2Cl)c(N)c1[S+]([O-])C(F)(F)F", "note": "(stereo not shown) [Fipronil]", "values": [{"measurement": "% control, Alone", "setting": "[1]; 400 ppm", "result": 60, "unit": "%"}, {"measurement": "% control, +BEEP", "setting": "[1]; 400 ppm", "result": 100, "unit": "%"}, {"measurement": "% control, Alone", "setting": "[1]; 600 ppm", "result": 69, "unit": "%"}, {"measurement": "% control, +BEEP", "setting": "[1]; 600 ppm", "result": 100, "unit": "%"}, {"measurement": "% control, Alone", "setting": "[1]; 800 ppm", "result": 66, "unit": "%"}, {"measurement": "% control, +BEEP", "setting": "[1]; 800 ppm", "result": 100, "unit": "%"}, {"measurement": "% control, Alone", "setting": "[1]; 1000 ppm", "result": 83, "unit": "%"}, {"measurement": "% control, +BEEP", "setting": "[1]; 1000 ppm", "result": 100, "unit": "%"}]}
{"molecule": "CCCSP(=O)(OCC)Oc1ccc(Br)cc1Cl", "note": "(stereo not shown) [Profenofos]", "values": [{"measurement": "% control, Alone", "setting": "[2]; 12.5 ppm", "result": 16, "unit": "%"}, {"measurement": "% control, +BEEP", "setting": "[2]; 12.5 ppm", "result": 65, "unit": "%"}, {"measurement": "% control, Alone", "setting": "[2]; 25 ppm", "result": 41, "unit": "%"}, {"measurement": "% control, +BEEP", "setting": "[2]; 25 ppm", "result": 95, "unit": "%"}, {"measurement": "% control, Alone", "setting": "[2]; 50 ppm", "result": 95, "unit": "%"}, {"measurement": "% control, +BEEP", "setting": "[2]; 50 ppm", "result": 100, "unit": "%"}, {"measurement": "% control, Alone", "setting": "[2]; 100 ppm", "result": 100, "unit": "%"}, {"measurement": "% control, +BEEP", "setting": "[2]; 100 ppm", "result": 100, "unit": "%"}]}
